This is an account of results in patent publication US5254557A, “Compound and treatment” (Beecham Group p.l.c., priority 1988, dated 1993).

The subject of experiment [1] is guinea pig tracheal spiral preparations. Nature of the experiment: Bronchodilation in vitro; guinea pig tracheal spiral preparations. Format: cell-based. Particulars: Cavia porcellus; for Emax: guinea pig tracheal spirals, relaxation relative to 10^-3 M isoprenaline, read-out: Intrinsic Activity; for IC50: relaxation as percentage of total relaxation by 10^-3 M isoprenaline, cumulative dosing 10^-8 - 2×10^-5 M, 37° C. The method, then: (a) Bronchodilation in vitro; guinea pig tracheal spiral preparations
Male guinea pigs (300-600 g) were stunned by a blow to the head and bled from the carotid artery. The trachea was exposed, dissected free of connective tissue, and transferred to oxygenated krebs solution at 37° C. Next, spirals (2 per trachea) were prepared by cutting the whole trachea spirally along its longitudinal axis and then dividing this spiral lengthwise. Each preparation was mounted, using silk thread, in a 10 ml organ bath filled with krebs solution at 37° C. and bubbled with 5% CO2 with O2. The resting tension of the preparations was set at 2 g and changes in muscle tension were monitored isometrically by means of a UFI (2 oz) force and displacement transducer (Ormed Ltd) connected to a Linseis pen recorder. All preparations were allowed to equilibrate for 60 minutes. During this equilibration period the preparations were washed by upward displacement at 15 minute intervals and, if necessary, the resting tension was readjusted to 2 g using a mechanical micromanipulator system.
Once a steady resting tension had been obtained, the preparations were dosed cumulatively with the test compound (10^-8 -2×10^-5 M), and finally a maximum relaxation achieved by addition of 10^-3 M isoprenaline. The fall in tension evoked by the test compound was expressed as a percentage of the total relaxation evoked in the presence of 10^-3 M isoprenaline. Appropriate concentration-relaxation curves were then constructed and values for potency (IC50) were obtained.
The composition of Krebs solution is: sodium chloride 118.07 mM, sodium hydrogen carbonate 26.19 mM, potassium chloride 4.68 mM, potassium orthophosphate 1.18 mM, magnesium sulphate septahydrate 1.8 mM and calcium chloride 2.52 mM; pH ca. 7.45.

Experiment [2] relates to Spontaneously hypertensive rats. As to the kind of experiment: Blood Pressure Lowering Activity (systolic blood pressure, tail cuff method). Format: in vivo, rat. The procedure:
Blood Pressure Lowering Activity
Systolic blood pressures were recorded by a modification of the tail cuff method described by I. M. Claxton, M. G. Palfreyman, R. H. Poyser, R. L. Whiting, European Journal of Pharmacology, 37, 179 (1976). A W+W BP recorder, model 8005 was used to display pulses. Prior to all measurements rats were placed in a heated environment (33.5°±0.5° C.) before transfer to a restraining cage. Each determination of blood pressure was the mean of at least 6 readings. Spontaneously hypertensive rats (ages 12-18 weeks) with systolic blood pressures>180 mmHg were considered hypertensive.

Usually IC50 stands for the midpoint of a concentration-inhibition curve. A lower IC50 goes with inhibition by little substance. Take `CC1(C)Oc2ccc(C#N)cc2[C@@H](n2ccccc2=O)[C@@H]1O` (relative stereo) [Example 1, Trans-6-Cyano-3,4-dihydro-2,2-dimethyl-4-(2(1H)-pyridon-1-yl)-2H-1-benzopyran-3-ol]: the Emax in experiment [1] stood at 96%. Also, it took 790 nM to reach half-maximal inhibition in experiment [1] (IC50). In addition, the “% Change in Systolic B.P.” value was -12 ± 5% in experiment [2] (0.1 mg/kg p.o., 1 h post dose); -20 ± 2% in experiment [2] (0.1 mg/kg p.o., 2 h post dose); -21 ± 3% in experiment [2] (0.1 mg/kg p.o., 4 h post dose); -23 ± 5% in experiment [2] (0.1 mg/kg p.o., 6 h post dose).
Regarding `CC1(C)Oc2ccc(C(F)(F)F)cc2[C@@H](n2ccccc2=O)[C@@H]1O` (relative stereo) [Example 4, Trans-3,4-Dihydro-2,2-dimethyl-6-trifluoromethyl-4-(2(1H)-pyridon-1-yl)-2H-1-benzopyran-3-ol], the Emax in experiment [1] worked out at 95%. In addition, inhibition in experiment [1] was half-maximal at 540 nM (IC50). The “% Change in Systolic B.P.” value in experiment [2] (0.3 mg/kg p.o., 2 h post dose) is -42 ± 3%; in experiment [2] (0.3 mg/kg p.o., 4 h post dose), -32 ± 5%; in experiment [2] (0.3 mg/kg p.o., 6 h post dose) it was -34%.
In the case of `CC1(C)Oc2ccncc2[C@@H](n2ccccc2=O)[C@@H]1O` (relative stereo) [Example 6], in experiment [1], the Emax was 81% and the IC50 was 5500 nM.
Regarding `CC1(C)C=C(n2ccccc2=O)c2cc(C#N)ccc2O1` [Example 2, 6-Cyano-2,2-dimethyl-4-(2(1H)-pyridon-1-yl)-2H-1-benzopyran], in experiment [1], the Emax stood at 92%. Further, the IC50 in experiment [1] was determined as 100 nM. Besides, the “% Change in Systolic B.P.” value is -41 ± 3% in experiment [2] (0.03 mg/kg p.o., 2 h post dose); -38% in experiment [2] (0.03 mg/kg p.o., 4 h post dose); -32 ± 3% in experiment [2] (0.03 mg/kg p.o., 6 h post dose).
As for `CC1(C)C=C(n2ccc(=O)cc2)c2cc(C#N)ccc2O1` [Example 3, 6-Cyano-2,2-dimethyl-4-(4(1H)-pyridon-1-yl)-2H-1-benzopyran], the Emax in experiment [1] is 75%. Half-maximal inhibition in experiment [1] (IC50) required 11000 nM. Further, the “% Change in Systolic B.P.” value in experiment [2] (3 mg/kg p.o., 1 h post dose) is listed as -46 ± 7%; in experiment [2] (3 mg/kg p.o., 2 h post dose), -49 ± 3%; in experiment [2] (3 mg/kg p.o., 4 h post dose) it was -63%; in experiment [2] (3 mg/kg p.o., 6 h post dose), -57 ± 3%.
With `CC1(C)C=C(n2ccccc2=O)c2cc(C(F)(F)F)ccc2O1` [Example 5, 2,2-Dimethyl-6-trifluoromethyl-4-(2(1H)-pyridon-1-yl)-2H-1-benzopyran], the Emax in experiment [1] is 99%. The same compound came in with an IC50 in experiment [1] of 52 nM. Also, the “% Change in Systolic B.P.” value was -15 ± 3% in experiment [2] (0.03 mg/kg p.o., 1 h post dose); -20 ± 1% in experiment [2] (0.03 mg/kg p.o., 2 h post dose); -25 ± 3% in experiment [2] (0.03 mg/kg p.o., 4 h post dose); -28 ± 1% in experiment [2] (0.03 mg/kg p.o., 6 h post dose).
Take `CC1(C)C=C(n2ccccc2=O)c2cnccc2O1` [Example 7, 2,2-Dimethyl-4-(2(1H)-pyridon-1-yl)-2H-pyrano[3,2-c]pyridine]: in experiment [1], the Emax came out at 93% and the IC50 came out at 2400 nM.
